Reference: article PMC5218480 (PLoS ONE, 2017)

System: MV-4-11 cells
Test: Gene expression microarray analysis (Affymetrix PrimeView) and GSEA
Type: cell-based, human
Design: RFU PODN (11730768_x_at) / Fold change /veh PODN (11730768_x_at) / RFU LINC00158 (11744669_a_at) / Fold change /veh LINC00158 (11744669_a_at) / RFU DUSP10 (11751237_a_at) / Fold change /veh DUSP10 (11751237_a_at) / RFU ID3 (11757404_x_at) / Fold change /veh ID3 (11757404_x_at) / RFU PLEKHG5 (11737974_s_at) / Fold change /veh PLEKHG5 (11737974_s_at) / RFU LRRC4B (11730491_at) / Fold change /veh LRRC4B (11730491_at) / RFU GIMAP4 (11747438_a_at) / Fold change /veh GIMAP4 (11747438_a_at) / RFU KRT8 (11758183_x_at) / Fold change /veh KRT8 (11758183_x_at) / RFU CNN1 (11734310_a_at) / Fold change /veh CNN1 (11734310_a_at) / RFU VPS37D (11726825_at) / Fold change /veh VPS37D (11726825_at) / RFU C10orf10 (11716522_x_at) / Fold change /veh C10orf10 (11716522_x_at) / RFU KIR2DL2 /// KIR2DL4 /// KIR2DL5A /// KIR2DL5B /// KIR2DS1 /// KIR2DS2 /// KIR2DS3 /// KIR2DS4 /// KIR3DL3 /// KIR3DL3 /// KIR3DS1 (11738374_at) / Fold change /veh KIR2DL2 /// KIR2DL4 /// KIR2DL5A /// KIR2DL5B /// KIR2DS1 /// KIR2DS2 /// KIR2DS3 /// KIR2DS4 /// KIR3DL3 /// KIR3DL3 /// KIR3DS1 (11738374_at) / RFU C1QL1 (11718748_at) / Fold change /veh C1QL1 (11718748_at) / RFU TMPRSS4 (11747572_a_at) / Fold change /veh TMPRSS4 (11747572_a_at) / RFU HAMP (11756126_x_at) / Fold change /veh HAMP (11756126_x_at) / RFU RNFT2 (11725882_a_at) / Fold change /veh RNFT2 (11725882_a_at) / RFU NR4A2 (11747474_a_at) / Fold change /veh NR4A2 (11747474_a_at) / RFU ABCC12 (11746883_a_at) / Fold change /veh ABCC12 (11746883_a_at) / RFU TMEM136 (11760407_x_at) / Fold change /veh TMEM136 (11760407_x_at) / RFU CLDN22 /// WWC2 (11732394_at) / Fold change /veh CLDN22 /// WWC2 (11732394_at) / RFU HLA-DPB1 (11760878_x_at) / Fold change /veh HLA-DPB1 (11760878_x_at) / RFU SPINT1 (11716480_a_at) / Fold change /veh SPINT1 (11716480_a_at) / RFU GAP43 (11754022_s_at) / Fold change /veh GAP43 (11754022_s_at) / RFU A4GNT (11735810_at) / Fold change /veh A4GNT (11735810_at) / RFU PRB3 (11715151_x_at) / Fold change /veh PRB3 (11715151_x_at) / RFU TUBB4B (11761932_at) / Fold change /veh TUBB4B (11761932_at) / RFU CAPN14 (11732068_a_at) / Fold change /veh CAPN14 (11732068_a_at) / RFU TMCC2 (11721928_a_at) / Fold change /veh TMCC2 (11721928_a_at) / RFU IRGQ (11745062_a_at) / Fold change /veh IRGQ (11745062_a_at) / RFU FAM174B (11720279_a_at) / Fold change /veh FAM174B (11720279_a_at) / RFU TMPRSS4 (11748680_a_at) / Fold change /veh TMPRSS4 (11748680_a_at) / RFU FAM212B (11763350_a_at) / Fold change /veh FAM212B (11763350_a_at) / RFU PLEKHG5 (11743358_a_at) / Fold change /veh PLEKHG5 (11743358_a_at) / RFU ZSCAN30 (11745921_a_at) / Fold change /veh ZSCAN30 (11745921_a_at) / RFU CMKLR1 (11741424_a_at) / Fold change /veh CMKLR1 (11741424_a_at) / RFU LOC101060620 /// MAPK8IP1 (11723275_at) / Fold change /veh LOC101060620 /// MAPK8IP1 (11723275_at) / RFU SPTSSB (11747773_x_at) / Fold change /veh SPTSSB (11747773_x_at) / RFU PRSS12 (11739890_at) / Fold change /veh PRSS12 (11739890_at) / RFU BIN1 (11741810_x_at) / Fold change /veh BIN1 (11741810_x_at) / RFU WNT11 (11732464_a_at) / Fold change /veh WNT11 (11732464_a_at) / RFU C10orf10 (11716521_a_at) / Fold change /veh C10orf10 (11716521_a_at) / RFU C5orf56 (11738089_at) / Fold change /veh C5orf56 (11738089_at) / RFU CYB561 (11721691_x_at) / Fold change /veh CYB561 (11721691_x_at) / RFU ANKRD19P (11752326_a_at) / Fold change /veh ANKRD19P (11752326_a_at) / RFU OR2T12 /// OR2T33 /// OR2T8 (11738714_s_at) / Fold change /veh OR2T12 /// OR2T33 /// OR2T8 (11738714_s_at) / RFU VCAN (11748164_a_at) / Fold change /veh VCAN (11748164_a_at) / RFU JSRP1 (11732532_at) / Fold change /veh JSRP1 (11732532_at) / RFU KRTAP10-11 (11738290_x_at) / Fold change /veh KRTAP10-11 (11738290_x_at) / RFU MYO3A (11730013_a_at) / Fold change /veh MYO3A (11730013_a_at) / RFU EBF3 (11725865_a_at) / Fold change /veh EBF3 (11725865_a_at) / RFU CAMK2N1 (11719241_x_at) / Fold change /veh CAMK2N1 (11719241_x_at) / RFU C5orf56 (11738088_a_at) / Fold change /veh C5orf56 (11738088_a_at) / RFU OLFML3 (11715873_a_at) / Fold change /veh OLFML3 (11715873_a_at) / RFU LOC100653217 /// NTM (11731650_a_at) / Fold change /veh LOC100653217 /// NTM (11731650_a_at) / RFU MAPK11 (11762145_a_at) / Fold change /veh MAPK11 (11762145_a_at) / RFU FIZ1 (11724087_x_at) / Fold change /veh FIZ1 (11724087_x_at) / RFU OASL (11726364_x_at) / Fold change /veh OASL (11726364_x_at) / RFU SOX15 (11748057_x_at) / Fold change /veh SOX15 (11748057_x_at) / RFU CD79A (11719716_a_at) / Fold change /veh CD79A (11719716_a_at) / RFU HIST1H1D (11736915_at) / Fold change /veh HIST1H1D (11736915_at) / RFU CASKIN2 (11723855_a_at) / Fold change /veh CASKIN2 (11723855_a_at) / RFU LOC730098 (11760151_x_at) / Fold change /veh LOC730098 (11760151_x_at) / RFU OR4N2 (11742367_at) / Fold change /veh OR4N2 (11742367_at) / RFU PRRT2 (11749266_a_at) / Fold change /veh PRRT2 (11749266_a_at) / RFU SNX32 (11753110_a_at) / Fold change /veh SNX32 (11753110_a_at) / RFU CDHR5 (11726645_a_at) / Fold change /veh CDHR5 (11726645_a_at) / RFU RCAN1 (11760418_a_at) / Fold change /veh RCAN1 (11760418_a_at) / RFU FAM167A (11723789_a_at) / Fold change /veh FAM167A (11723789_a_at) / RFU FAM26E (11764081_at) / Fold change /veh FAM26E (11764081_at) / RFU ISYNA1 (11749810_s_at) / Fold change /veh ISYNA1 (11749810_s_at) / RFU ACY1 (11761880_at) / Fold change /veh ACY1 (11761880_at) / RFU 11764098_at / Fold change /veh 11764098_at / RFU SAMD14 (11745864_x_at) / Fold change /veh SAMD14 (11745864_x_at) / RFU NPB (11741838_a_at) / Fold change /veh NPB (11741838_a_at) / RFU TMPRSS6 (11731388_a_at) / Fold change /veh TMPRSS6 (11731388_a_at) / RFU KRTAP10-2 (11738614_at) / Fold change /veh KRTAP10-2 (11738614_at) / RFU ARHGAP8 /// PRR5-ARHGAP8 (11727945_x_at) / Fold change /veh ARHGAP8 /// PRR5-ARHGAP8 (11727945_x_at) / RFU KRTAP5-7 /// NADSYN1 (11734609_at) / Fold change /veh KRTAP5-7 /// NADSYN1 (11734609_at) / RFU RASL12 (11751679_a_at) / Fold change /veh RASL12 (11751679_a_at) / RFU CDKN2B (11736163_a_at) / Fold change /veh CDKN2B (11736163_a_at) / RFU PRF1 (11729649_at) / Fold change /veh PRF1 (11729649_at) / RFU, ZNF638 /// ZNF638-IT1 / Fold change vs veh, ZNF638 /// ZNF638-IT1 / RFU, PANK3 / Fold change vs veh, PANK3 / RFU, SH3YL1 / Fold change vs veh, SH3YL1 / RFU, ZEB2 / Fold change vs veh, ZEB2 / RFU, NRIP1 / Fold change vs veh, NRIP1 / RFU, PTTG1IP / Fold change vs veh, PTTG1IP / RFU, CAPN2 / Fold change vs veh, CAPN2 / RFU, MED14 / Fold change vs veh, MED14 / RFU, SNORA58 / Fold change vs veh, SNORA58 / RFU, C1orf63 / Fold change vs veh, C1orf63 / RFU, LRRFIP1 / Fold change vs veh, LRRFIP1 / RFU, NDUFAF7 / Fold change vs veh, NDUFAF7 / RFU, SLC12A2 / Fold change vs veh, SLC12A2 / RFU, IBTK / Fold change vs veh, IBTK / RFU, ESF1 / Fold change vs veh, ESF1 / Fold change vs veh, TMEM50B / RFU, TAOK1 / Fold change vs veh, TAOK1 / RFU, ACBD3 / Fold change vs veh, ACBD3 / RFU, TMA16 / Fold change vs veh, TMA16 / RFU, RWDD3 / Fold change vs veh, RWDD3 / RFU, BCAT1 / Fold change vs veh, BCAT1 / RFU, EDEM3 / Fold change vs veh, EDEM3 / RFU, TMEM33 / Fold change vs veh, TMEM33 / RFU, WDR75 / Fold change vs veh, WDR75 / RFU, AHCTF1 / Fold change vs veh, AHCTF1 / RFU, TFRC / Fold change vs veh, TFRC / RFU, ZDHHC17 / Fold change vs veh, ZDHHC17 / RFU, NOM1 / Fold change vs veh, NOM1 / RFU, ARL8B / Fold change vs veh, ARL8B / RFU, ZBTB11 / Fold change vs veh, ZBTB11 / RFU, TAMM41 / Fold change vs veh, TAMM41 / RFU, KIAA1704 /// LOC100996395 / Fold change vs veh, KIAA1704 /// LOC100996395 / RFU, ING1 / Fold change vs veh, ING1 / RFU, TRMT61B / Fold change vs veh, TRMT61B / RFU, FUBP3 / Fold change vs veh, FUBP3 / RFU, TP53 / Fold change vs veh, TP53 / RFU, TNKS2 / Fold change vs veh, TNKS2 / RFU, ZFP14 / Fold change vs veh, ZFP14 / RFU, ACTR2 / Fold change vs veh, ACTR2 / RFU, PPP3R1 / Fold change vs veh, PPP3R1 / RFU, PIK3R1 / Fold change vs veh, PIK3R1 / RFU, HNRNPA1 / Fold change vs veh, HNRNPA1 / RFU, RNF170 / Fold change vs veh, RNF170 / RFU, ZNF28 / Fold change vs veh, ZNF28 / RFU, RNGTT / Fold change vs veh, RNGTT / RFU, OGT / Fold change vs veh, OGT / RFU, BRD1 / Fold change vs veh, BRD1 / RFU, MARS / Fold change vs veh, MARS / RFU, ZNF655 / Fold change vs veh, ZNF655 / RFU, FAHD1 / Fold change vs veh, FAHD1 / RFU, BDP1 / Fold change vs veh, BDP1 / RFU, LRRCC1 / Fold change vs veh, LRRCC1 / RFU, ARID1A / Fold change vs veh, ARID1A / RFU, ZNF146 / Fold change vs veh, ZNF146 / RFU, ZNF330 / Fold change vs veh, ZNF330 / RFU, GPN3 / Fold change vs veh, GPN3 / RFU, C9orf123 / Fold change vs veh, C9orf123 / RFU, N4BP2L2 / Fold change vs veh, N4BP2L2 / RFU, ARFIP1 / Fold change vs veh, ARFIP1 / RFU, FAM179B / Fold change vs veh, FAM179B / RFU, BCL10 / Fold change vs veh, BCL10 / RFU, UHRF1BP1L / Fold change vs veh, UHRF1BP1L / RFU, BET1 / Fold change vs veh, BET1 / RFU, CNOT2 / Fold change vs veh, CNOT2 / RFU, ZNF268 / Fold change vs veh, ZNF268 / Fold change vs veh, ZNF507 / RFU, DGCR2 / Fold change vs veh, DGCR2 / RFU, WDSUB1 / Fold change vs veh, WDSUB1 / Fold change vs veh, HSP90B1 /// MIR3652 / RFU, ADSS / Fold change vs veh, ADSS / RFU, GK / Fold change vs veh, GK / RFU, ZNF148 / Fold change vs veh, ZNF148 / RFU, TAF9 / Fold change vs veh, TAF9 / RFU, SLC1A5 / Fold change vs veh, SLC1A5 / RFU, SLMO2 / Fold change vs veh, SLMO2 / RFU, ABCC4 / Fold change vs veh, ABCC4 / RFU, LOC101060439 /// RAP1B / Fold change vs veh, LOC101060439 /// RAP1B / RFU, RFX7 / Fold change vs veh, RFX7 / RFU, GTPBP10 / Fold change vs veh, GTPBP10 / RFU, CNEP1R1 / Fold change vs veh, CNEP1R1 / RFU, BIVM-ERCC5 /// ERCC5 / Fold change vs veh, BIVM-ERCC5 /// ERCC5 / RFU, ILF3 / Fold change vs veh, ILF3 / RFU 11762660_at / Fold change /veh 11762660_at / RFU VCAN (11757783_s_at) / Fold change /veh VCAN (11757783_s_at) / RFU DDX43 (11728927_at) / Fold change /veh DDX43 (11728927_at) / RFU KRT8 (11758188_x_at) / Fold change /veh KRT8 (11758188_x_at) / RFU NKD1 (11759106_at) / Fold change /veh NKD1 (11759106_at) / RFU SRD5A1 (11742802_a_at) / Fold change /veh SRD5A1 (11742802_a_at) / RFU TPSAB1 /// TPSB2 (11721975_s_at) / Fold change /veh TPSAB1 /// TPSB2 (11721975_s_at) / RFU GSTM3 (11746129_a_at) / Fold change /veh GSTM3 (11746129_a_at) / RFU IL23R (11737362_x_at) / Fold change /veh IL23R (11737362_x_at) / RFU TMEM51 (11727254_a_at) / Fold change /veh TMEM51 (11727254_a_at) / RFU PIWIL2 (11732686_x_at) / Fold change /veh PIWIL2 (11732686_x_at) / RFU ORM1 (11744905_x_at) / Fold change /veh ORM1 (11744905_x_at) / RFU CCDC152 (11743942_at) / Fold change /veh CCDC152 (11743942_at) / RFU ECM1 (11717891_a_at) / Fold change /veh ECM1 (11717891_a_at) / RFU IL23R (11748794_a_at) / Fold change /veh IL23R (11748794_a_at) / RFU TNFAIP8L3 (11732012_x_at) / Fold change /veh TNFAIP8L3 (11732012_x_at) / RFU MBOAT4 (11741988_at) / Fold change /veh MBOAT4 (11741988_at) / RFU 11764193_at / Fold change /veh 11764193_at / RFU TMEM53 (11763286_at) / Fold change /veh TMEM53 (11763286_at) / RFU MAGEB2 (11727129_at) / Fold change /veh MAGEB2 (11727129_at) / RFU TMEM200A (11744735_a_at) / Fold change /veh TMEM200A (11744735_a_at) / RFU CCDC152 (11751479_a_at) / Fold change /veh CCDC152 (11751479_a_at) / RFU FAM211A (11726209_a_at) / Fold change /veh FAM211A (11726209_a_at) / RFU RGS16 (11746705_a_at) / Fold change /veh RGS16 (11746705_a_at) / RFU VCAN (11755009_s_at) / Fold change /veh VCAN (11755009_s_at) / RFU RHOB (11743442_s_at) / Fold change /veh RHOB (11743442_s_at) / RFU RGS16 (11720943_a_at) / Fold change /veh RGS16 (11720943_a_at) / RFU RGS16 (11720944_at) / Fold change /veh RGS16 (11720944_at) / RFU, VPS4B / Fold change vs veh, VPS4B / RFU, CREB1 / Fold change vs veh, CREB1 / RFU, DNAJC13 / Fold change vs veh, DNAJC13 / RFU, GNAQ / Fold change vs veh, GNAQ / RFU, CDK5R1 / Fold change vs veh, CDK5R1 / RFU, ZRANB3 / Fold change vs veh, ZRANB3 / RFU, CUL4A / Fold change vs veh, CUL4A / RFU, CCNY / Fold change vs veh, CCNY / RFU, UFL1 / Fold change vs veh, UFL1 / RFU, COG3 / Fold change vs veh, COG3 / RFU, DIAPH2 / Fold change vs veh, DIAPH2 / RFU, SKA2 / Fold change vs veh, SKA2 / RFU, AFF3 / Fold change vs veh, AFF3 / RFU, LMF1 / Fold change vs veh, LMF1 / RFU, IPO11 / Fold change vs veh, IPO11 / RFU, DFFB / Fold change vs veh, DFFB / RFU, FOXP1 / Fold change vs veh, FOXP1 / RFU, CARD8 / Fold change vs veh, CARD8 / RFU, STRN3 / Fold change vs veh, STRN3 / RFU, ADK / Fold change vs veh, ADK / RFU, RASSF2 / Fold change vs veh, RASSF2 / RFU, WIPF1 / Fold change vs veh, WIPF1 / RFU, LARP1B / Fold change vs veh, LARP1B / RFU, RASA1 / Fold change vs veh, RASA1 / RFU, RB1 / Fold change vs veh, RB1 / RFU, PPFIA1 / Fold change vs veh, PPFIA1 / RFU, MAT2A / Fold change vs veh, MAT2A / RFU, CCT5 / Fold change vs veh, CCT5 / RFU, WDR92 / Fold change vs veh, WDR92 / RFU, CUX1 / Fold change vs veh, CUX1 / RFU, TTC7A / Fold change vs veh, TTC7A / RFU, TMEM135 / Fold change vs veh, TMEM135 / RFU, DEPTOR / Fold change vs veh, DEPTOR / RFU, CPM / Fold change vs veh, CPM / RFU, DNAJB6 / Fold change vs veh, DNAJB6 / RFU, CACNA2D3 / Fold change vs veh, CACNA2D3 / RFU, DTX4 / Fold change vs veh, DTX4 / RFU, TFCP2 / Fold change vs veh, TFCP2 / RFU, GMCL1 /// GMCL1P1 / Fold change vs veh, GMCL1 /// GMCL1P1 / RFU, AEBP2 / Fold change vs veh, AEBP2 / RFU, SNHG1 /// SNORD22 /// SNORD25 /// SNORD26 /// SNORD27 /// SNORD28 /// SNORD29 /// SNORD31 / Fold change vs veh, SNHG1 /// SNORD22 /// SNORD25 /// SNORD26 /// SNORD27 /// SNORD28 /// SNORD29 /// SNORD31 / Fold change (Aza/veh), C12orf56 (ProbeSet 11735607_a_at) / Fold change (ACY-1035/veh), C12orf56 (ProbeSet 11735607_a_at) / Fold change (Aza/veh), FGFR1OP (ProbeSet 11751329_s_at) / Fold change (ACY-1035/veh), FGFR1OP (ProbeSet 11751329_s_at) / Fold change (Aza/veh), VPS36 (ProbeSet 11739960_a_at) / Fold change (ACY-1035/veh), VPS36 (ProbeSet 11739960_a_at) / RFU SYPL1 (11715823_x_at) / Fold change /veh SYPL1 (11715823_x_at) / RFU IGFBP7 (11715501_s_at) / Fold change /veh IGFBP7 (11715501_s_at) / RFU REEP3 (11722064_at) / Fold change /veh REEP3 (11722064_at) / RFU IGLL1 (11728026_x_at) / Fold change /veh IGLL1 (11728026_x_at): dose or concentration left out as unconfirmed
Details: MV-4-11 cells, 48 hours

Nc1ccc(-c2cccs2)cc1NC(=O)c1ccc2c(c1)cc(C1CC1)n2CCN1CCOCC1 [ACY-1035]
Fold change /veh MAGEB2 (11727129_at): 0.99
